Test results published in patent publication US20170158636A1, “FUNCTIONALISED AND SUBSTITUTED CARBAZOLES AS ANTI-CANCER AGENTS” (Novogen Ltd., priority 2014, published 2017).

Key:
Assay in all cases: Anti-proliferative activity, cell-titre luminescent viability assay
Assay type in all cases: cell-based
[1] = system: A549 lung (NSLC) cancer cells; settings: Homo sapiens, 72 hours exposure
Protocol: (§1) The ability of compounds 1001-1018 and 1037-1039 to inhibit the proliferation of cancer cells representative of neuroblastoma, melanoma, prostate cancer, colorectal cancer, non-small cell lung carcinoma, and triple negative breast cancer was assessed (Table 1).
(§2) Briefly, a pre-determined number of cells as calculated from cell growth assays for each of the cell lines employed were seeded into their respective culture medium (using ATCC culture parameters—http://www.atcc.org) and cultured for 24 hours at 37° C. and 5% CO2 in 96-well culture plates. Once attached, each cell line was then exposed to increasing concentrations of each respective analogue (0.03, 0.3, 3 and 30 μM for compounds 1001-13 and 1015-18; 0.1, 0.3, 1, 3, 10 and 30 μM for compounds 1014 and 1037-39), cultured for a further 72 hours and exposed to cell-titre luminescent reagent (100 μL/well) for a further 30 minutes) to measure cell viability. Luminescence was captured using an EnVision multilabel reader and the data for each analogue concentration compared against no treatment control. For compounds 1001-13 and 1015-18, semi-log plots of Percent of Control versus concentration were prepared and IC50 determined using linear regression analysis. For compounds 1014 and 1037-39, cell viability was normalized to control (vehicle alone) and dose-response curves, and half maximal effective concentration (EC50) values were determined using Graph Pad Prism 6 (nonlinear regression sigmoidal dose-response variable slope).

[2] = system: CaCo2 colorectal cancer cells; settings: Homo sapiens, Caco-2, 72 hours exposure
Protocol: as §1, §2

[3] = system: DU145 prostate cancer cells; settings: Homo sapiens, DU-145, 72 hours exposure
Protocol: as §1, §2

[4] = system: MDA-MB-231 breast cancer cells; settings: Homo sapiens, 72 hours exposure
Protocol: as §1, §2

[5] = system: PC3 prostate cancer cells; settings: 72 hours exposure
Protocol: as §1, §2

[6] = system: SK-Mel-28 melanoma cells; settings: Homo sapiens, 72 hours exposure
Protocol: as §1, §2

[7] = system: SK-N-SH neuroblastoma cells; settings: Homo sapiens, 72 hours exposure
Protocol: as §1, §2

Row | IC50 [1] [µM] | IC50 [2] [µM] | IC50 [3] [µM] | IC50 [4] [µM] | IC50 [5] [µM] | IC50 [6] [µM] | IC50 [7] [µM] | Structure (SMILES)
1 | 3.4 | 3.7 | 3.6 | 4.3 | 3.1 | 3.2 | 3.1 | COc1ccc(CCN2CCN(C(=O)c3ccc4c(c3)c3ccccc3n4CCCN(C)C)CC2)cc1 [Compound 1003, (9-(3-(dimethylamino)propyl)-9H-carbazol-3-yl)(4-(4-methoxyphenethyl)piperazin-1-yl)methanone]
2 | 3.5 | 4.1 | 4.4 | 3 | 5.2 | 3.5 | 3.4 | COc1cccc(CCN2CCN(C(=O)c3ccc4c(c3)c3ccccc3n4CCCN(C)C)CC2)c1 [Compound 1006, (9-(3-(dimethylamino)propyl)-9H-carbazol-3-yl)(4-(3-methoxyphenethyl)piperazin-1-yl)methanone]
3 | 3.8 | 6.7 | 4 | 3.5 | 4.8 | 2.5 | 3.3 | CCN(CC)CCCn1c2ccccc2c2cc(C(=O)N3CCN(CCc4ccc(OC)cc4)CC3)ccc21 [Compound 1008, (9-(3-(diethylamino)propyl)-9H-carbazol-3-yl)(4-(4-methoxyphenethyl)piperazin-1-yl)methanone]
4 | 3.6 | 4.1 | 3.7 | 4.2 | 3.7 | 3.9 | 3.3 | CCN(CC)CCCn1c2ccccc2c2cc(C(=O)N3CCN(CCc4cccc(F)c4)CC3)ccc21 [Compound 1010, (9-(3-(diethylamino)propyl)-9H-carbazol-3-yl)(4-(3-fluorophenethyl)piperazin-1-yl)methanone]
5 | 3.2 | 2.8 | 3.5 | 3.1 | 4.1 | 2.8 | 2.9 | CCN(CC)CCCn1c2ccccc2c2cc(C(=O)N3CCN(CCc4ccccc4)CC3)ccc21 [Compound 1012, (9-(3-(diethylamino)propyl)-9H-carbazol-3-yl)(4-phenethylpiperazin-1-yl)methanone]
6 | 4 | 5.5 | 15.5 | 4.4 | 5.3 | 3.4 | 5.1 | CN1CCN(CCCn2c3ccccc3c3cc(C(=O)N4CCN(CCc5ccc6c(c5)OCO6)CC4)ccc32)CC1 [Compound 1015, (4-(2-(benzo[d][1,3]dioxol-5-yl)ethyl)piperazin-1-yl)(9-(3-(4-methylpiperazin-1-yl)propyl)-9H-carbazol-3-yl)methanone]
7 | 3.6 | 4.6 | 6.6 | 3.7 | 5.2 | 4 | 4.7 | COc1cccc(CCN2CCN(C(=O)c3ccc4c(c3)c3ccccc3n4CCCN3CCN(C)CC3)CC2)c1 [Compound 1017, (4-(3-methoxyphenethyl)piperazin-1-yl)(9-(3-(4-methylpiperazin-1-yl)propyl)-9H-carbazol-3-yl)methanone]
8 | 16.3 | > 30 | > 30 | > 30 | > 30 | > 30 | > 30 | O=C(c1ccc2[nH]c3ccccc3c2c1)N1CCN(CCc2ccc(F)cc2)CC1 [Compound 1037, (9H-carbazol-3-yl)(4-(4-fluorophenethyl)piperazin-1-yl)methanone]
9 | > 30 | > 30 | > 30 | > 30 | > 30 | > 30 | > 30 | O=C(c1ccc2c(c1)c1ccccc1n2CCc1ccc(F)cc1)N1CCN(CCc2ccc(F)cc2)CC1 [Compound 1039, (9-(4-fluorophenethyl)-9H-carbazol-3-yl)(4-(4-fluorophenethyl)piperazin-1-yl)methanone]

Second part, the compound before the results:

Row | Structure (SMILES) | IC50 [1] [µM] | IC50 [2] [µM] | IC50 [3] [µM] | IC50 [4] [µM] | IC50 [5] [µM] | IC50 [6] [µM] | IC50 [7] [µM]
10 | CN(C)CCCn1c2ccccc2c2cc(C(=O)N3CCN(CCc4ccc(F)cc4)CC3)ccc21 [Compound 1002, (9-(3-(dimethylamino)propyl)-9H-carbazol-3-yl)(4-(4-fluorophenethyl)piperazin-1-yl)methanone] | 3.4 | 3.7 | 3.7 | 4.5 | 6.1 | 3.7 | 3.4
11 | CN(C)CCCn1c2ccccc2c2cc(C(=O)N3CCN(CCc4cccc(F)c4)CC3)ccc21 [Compound 1005, (9-(3-(dimethylamino)propyl)-9H-carbazol-3-yl)(4-(3-fluorophenethyl)piperazin-1-yl)methanone] | 3.5 | 3.8 | 3.2 | 4.1 | 3.3 | 3.5 | 3.3
12 | CCN(CC)CCCn1c2ccccc2c2cc(C(=O)N3CCN(CCc4ccc5c(c4)OCO5)CC3)ccc21 [Compound 1009, (4-(2-(benzo[d][1,3]dioxol-5-yl)ethyl)piperazin-1-yl)(9-(3-(diethylamino)propyl)-9H-carbazol-3-yl)methanone] | 4 | 5 | 12.1 | 4.5 | 4.6 | 4.1 | 4.8
13 | CCN(CC)CCCn1c2ccccc2c2cc(C(=O)N3CCN(CCc4cccc(OC)c4)CC3)ccc21 [Compound 1011, (9-(3-(diethylamino)propyl)-9H-carbazol-3-yl)(4-(3-methoxyphenethyl)piperazin-1-yl)methanone] | 3.8 | 4 | 4.5 | 2.5 | 5.5 | 3.4 | 4.2
14 | COc1ccc(CCN2CCN(C(=O)c3ccc4c(c3)c3ccccc3n4CCCN3CCN(C)CC3)CC2)cc1 [Compound 1014, (4-(4-methoxyphenethyl)piperazin-1-yl)(9-(3-(4-methylpiperazin-1-yl)propyl)-9H-carbazol-3-yl)methanone] | 31.1 | 13.8 | 40.2 | 10.2 | 3.8 | 5.1 | 8.8
15 | O=C(c1ccc2c(c1)c1ccccc1n2CCCCl)N1CCN(CCc2ccc(F)cc2)CC1 [Compound 1038, (9-(3-chloropropyl)-9H-carbazol-3-yl)(4-(4-fluorophenethyl)piperazin-1-yl)methanone] | > 30 | > 30 | > 30 | > 30 | > 30 | > 30 | > 30
